Converted amounts (≈) assume the structure as drawn. The source made the active and inactive calls.

Usually MIC50 stands for an inhibitory concentration at the 50% level, which refers to growth in some studies and to a panel of isolates in others. The HC50 is the concentration giving 50% haemolysis. Lower therefore signals stronger haemolysis. By MFC is commonly meant the smallest concentration meeting the test's criterion for killing the fungus.

Data set [1] in a line: Selectivity ratio of HC50 for hemolytic activity in human RBC to MIC for antifungal activity against Cryptococcus gattii R265. The data set is classed as toxicity. The following applies: red blood cells (erythrocytes).
Data set [2] deals with Candida albicans. In words: Antifungal activity against Candida albicans SC5314 assessed as fungal growth inhibition by broth microdilution assay. The data set is classed as functional. A general note: Dilution methods test growth across graded concentrations, often in twofold steps.
For data set [3], the system named is Cryptococcus neoformans. In words: Antifungal activity against Cryptococcus neoformans H99 assessed as fungal growth inhibition by broth microdilution assay. It is filed as functional.
Data set [4] is described as follows: Selectivity ratio of HC50 for hemolytic activity in human RBC to MIC for antifungal activity against Candida albicans SC5314. The data set is classed as toxicity. To be noted: red blood cells (erythrocytes).
Data set [5] has as its system Pichia kudriavzevii. In words: Antifungal activity against Candida krusei ATCC6258 assessed as fungal growth inhibition by broth microdilution assay. It is filed as functional.
The nature of data set [6]: Selectivity ratio of HC50 for hemolytic activity in human RBC to MIC for antifungal activity against Cryptococcus neoformans H99. The data set is classed as toxicity. To be noted: red blood cells (erythrocytes).
The nature of data set [7]: Hemolytic activity in human RBC incubated for 1 hr by microplate reader method. The data set is classed as toxicity, cell-based, Erythrocyte. To be noted: red blood cells (erythrocytes).
Data set [8] concerns Mucor racemosus. In words: Antifungal activity against Mucor racemosus R715 assessed as fungal growth inhibition by broth microdilution assay. The data set is classed as functional.
Data set [9] relates to Candida albicans. In words: Antifungal activity against Candida albicans CA17 assessed as fungal growth inhibition by broth microdilution assay. It is filed as functional.
The test system of data set [10] is Candida parapsilosis. Nature of the data set: Antifungal activity against Candida parapsilosis ATCC 22019 assessed as fungal growth inhibition by broth microdilution assay. It is filed as functional. To be noted: Lodderomyces parapsilosis.
The nature of data set [11]: Selectivity ratio of HC50 for hemolytic activity in human RBC to MIC for antifungal activity against Mucor racemosus MZ140. It is filed as toxicity. To be noted: red blood cells (erythrocytes).
The subject of data set [12] is Aspergillus fumigatus. Nature of the data set: Antifungal activity against Aspergillus fumigatus shjt40 assessed as fungal growth inhibition by broth microdilution assay. It is filed as functional.
Data set [13] in a line: Selectivity ratio of HC50 for hemolytic activity in human RBC to MIC for antifungal activity against Candida albicans CA17. It is filed as toxicity. To be noted: red blood cells (erythrocytes).
In data set [14] the test system is Mucor racemosus. Nature of the data set: Antifungal activity against Mucor racemosus MZ140 assessed as fungal growth inhibition by broth microdilution assay. The data set is classed as functional.
For data set [15], the system named is Cryptococcus deuterogattii. Nature of the data set: Antifungal activity against Cryptococcus gattii VGII R265 assessed as fungal growth inhibition by broth microdilution assay. The data set is classed as functional, Cryptococcus gattii species complex.
A short description of data set [16]: Selectivity ratio of HC50 for hemolytic activity in human RBC to MIC for antifungal activity against Aspergillus fumigatus shjt40. It is filed as toxicity. The following applies: red blood cells (erythrocytes).
The nature of data set [17]: Selectivity ratio of HC50 for hemolytic activity in human RBC to MIC for antifungal activity against Candida krusei ATCC6258. The data set is classed as toxicity. To be noted: red blood cells (erythrocytes).
A short description of data set [18]: Selectivity ratio of HC50 for hemolytic activity in human RBC to MIC for antifungal activity against Aspergillus fumigatus AF293. It is filed as toxicity. To be noted: red blood cells (erythrocytes).
Data set [19] can be described thus: Selectivity ratio of HC50 for hemolytic activity in human RBC to MIC for antifungal activity against Cryptococcus neoformans 5-FC. The data set is classed as toxicity. To be noted: red blood cells (erythrocytes).
The nature of data set [20]: Selectivity ratio of HC50 for hemolytic activity in human RBC to MIC for antifungal activity against Candida parapsilosis ATCC 22019. The following applies: red blood cells (erythrocytes). The data set is classed as toxicity.
The subject of data set [21] is Cryptococcus neoformans. Nature of the data set: Antifungal activity against Cryptococcus neoformans 5-FC assessed as fungal growth inhibition by broth microdilution assay. It is filed as functional.
Data set [22] deals with Candida albicans. Nature of the data set: Antifungal activity against Candida albicans CARG5 assessed as fungal growth inhibition by broth microdilution assay. It is filed as functional.
In data set [23] the test system is Aspergillus fumigatus. Nature of the data set: Antifungal activity against Aspergillus fumigatus AF293 assessed as fungal growth inhibition by broth microdilution assay. The data set is classed as functional.
Data set [24] in a line: Selectivity ratio of HC50 for hemolytic activity in human RBC to MIC for antifungal activity against Candida albicans 28A. It is filed as toxicity. To be noted: red blood cells (erythrocytes).
Data set [25] can be described thus: Selectivity ratio of HC50 for hemolytic activity in human RBC to MIC for antifungal activity against Mucor racemosus R715. It is filed as toxicity. To be noted: red blood cells (erythrocytes).
The test system of data set [26] is Candida albicans. Nature of the data set: Antifungal activity against Candida albicans 28A assessed as fungal growth inhibition by broth microdilution assay. It is filed as functional.
Data set [27] can be described thus: Selectivity ratio of HC50 for hemolytic activity in human RBC to MIC for antifungal activity against Candida albicans CARG5. The data set is classed as toxicity. To be noted: red blood cells (erythrocytes).
Data set [28] relates to Candida albicans. Nature of the data set: Fungicidal activity against Candida albicans SC5314 assessed as fungal growth inhibition incubated for 24 hrs by resazurin dye based assay. The data set is classed as functional. (Resazurin is reduced to fluorescent resorufin, in cell work by metabolically active cells.)
A short description of data set [29]: Toxicity against Galleria mellonella larva infected with Candida albicans SC5314 assessed as increase in survival rate at 8 mg/kg measured for 14 days. The following applies: in vivo, 336 h, time 14 day. The data set is classed as organism-based.
In data set [30] the test system is Cell membrane. In words: Induction of membrane permeabilization in Candida albicans SC5314 assessed as distruption of fungal cell membrane by measuring PI positive cells at 8 times MIC measured after 1 hrs by propidium iodide and DAPI staining based fluorescence microscopic analysis. The data set is classed as subcellular.

Turning to `CCCCCCCCCCCCCCCCCC(=O)N[C@@H](CCCCN)C(=O)N[C@@H](Cc1ccccc1)CN(CC(N)=O)C(=O)CCN`, the selectivity ratio in data set [1], in data set [4], in data set [6], in [11], in [13] and in data set [16] was not above 125 each time. In addition, the selectivity ratio in [17], in [18], in data set [19], in [20], in [24] and in data set [25] was not above 125 each time. In addition, in data set [27], the selectivity ratio was not above 125. The MIC50 in data set [2] was found to be 2 µg/mL (≈ 2.97 µM); in data set [3], 2 µg/mL (≈ 2.97 µM); in data set [5], 4 µg/mL (≈ 5.94 µM); in data set [8], 16 µg/mL (≈ 23.8 µM); in [9], 4 µg/mL (≈ 5.94 µM); in data set [10] it was 2 µg/mL (≈ 2.97 µM). In addition, the MIC50 stood at 8 µg/mL (≈ 11.9 µM) in [12]; 16 µg/mL (≈ 23.8 µM) in data set [14]; 2 µg/mL (≈ 2.97 µM) in data set [15]; 2 µg/mL (≈ 2.97 µM) in data set [21]; 2 µg/mL (≈ 2.97 µM) in [22]; 8 µg/mL (≈ 11.9 µM) in data set [23]. For the same compound, the MIC50 in [26] amounted to 2 µg/mL (≈ 2.97 µM). Further, the 50% haemolytic concentration (HC50) at 1 h in [7] is more than 250 µg/mL.
For the compound `CCCCCCCCCCCCCCCC(=O)N[C@@H](CCCCN)C(=O)N[C@@H](Cc1ccccc1)CN(CC(N)=O)C(=O)CN`, the selectivity ratio in [1], in data set [4], in [6], in data set [13], in data set [17] and in [19] was not above 125 each time. For the same compound, the selectivity ratio in data set [20], in data set [24] and in data set [27] was not above 125 throughout. For the same compound, the MIC50 is 4 µg/mL (≈ 6.34 µM) in data set [2]; 8 µg/mL (≈ 12.7 µM) in [3]; 4 µg/mL (≈ 6.34 µM) in data set [5]; 8 µg/mL (≈ 12.7 µM) in data set [9]; 4 µg/mL (≈ 6.34 µM) in data set [10]; 8 µg/mL (≈ 12.7 µM) in [15]. For the same compound, the MIC50 in data set [21], in data set [22] and in data set [26] was 8 µg/mL (≈ 12.7 µM) each time. The HC50 at 1 h in data set [7] is more than 250 µg/mL.
Regarding `CCCCCCCC/C=C\CCCCCCCC(=O)N[C@@H](CCCCN)C(=O)N[C@@H](Cc1ccccc1)CN(CC(N)=O)C(=O)CCN`, the selectivity ratio in data set [1], in data set [4], in [6], in [13], in [17] and in [19] was not above 125 in each case. The selectivity ratio in [20], in data set [24] and in [27] was not above 125 in each case. Moreover, the MIC50 in data set [2], in data set [3], in [5], in [9], in data set [10] and in [15] was 4 µg/mL (≈ 5.96 µM) each time. Besides, the MIC50 in data set [21], in data set [22] and in data set [26] was 4 µg/mL (≈ 5.96 µM) each time. This compound showed an HC50 at 1 h in data set [7] of more than 250 µg/mL.
For the compound `CCC(C)n1ncn(-c2ccc(N3CCN(c4ccc(OCC5COC(Cn6cncn6)(c6ccc(Cl)cc6Cl)O5)cc4)CC3)cc2)c1=O` (centres undefined) [ITRACONAZOLE], the MIC50 in [8] is 1 µg/mL (≈ 1.42 µM); in data set [12], more than 32 µg/mL; in data set [14], 1 µg/mL (≈ 1.42 µM); in data set [23], 1 µg/mL (≈ 1.42 µM).
With `OC(Cn1cncn1)(Cn1cncn1)c1ccc(F)cc1F` [FLUCONAZOLE], the MIC50 was 1 µg/mL (≈ 3.27 µM) in [2]; 4 µg/mL (≈ 13.1 µM) in data set [3]; 32 µg/mL (≈ 104 µM) in [5]; more than 32 µg/mL in [8]; more than 128 µg/mL in data set [9]; 2 µg/mL (≈ 6.53 µM) in data set [10]. Besides, the MIC50 in data set [12] was more than 32 µg/mL; in data set [14] it was more than 32 µg/mL; in data set [15], 4 µg/mL (≈ 13.1 µM); in [21] it was 2 µg/mL (≈ 6.53 µM); in data set [22], more than 128 µg/mL; in data set [23] it was more than 32 µg/mL. Besides, the MIC50 in data set [26] was more than 128 µg/mL. The minimal fungicidal concentration (MFC) in [28] was more than 16 µg/mL. Also, the Activity result in [29] is “Non-Toxic”.
For the compound `C[C@@H]1[C@H](O)[C@@H](C)/C=C/C=C/C=C/C=C/C=C/C=C/C=C/[C@H](O[C@@H]2O[C@H](C)[C@@H](O)[C@H](N)[C@@H]2O)C[C@@H]2O[C@](O)(C[C@@H](O)C[C@@H](O)[C@H](O)CC[C@@H](O)C[C@@H](O)CC(=O)O[C@H]1C)C[C@H](O)[C@H]2C(=O)O`, the outcome in data set [30] was Active.
Turning to `CCCCCCCCCCCCCCCC(=O)N[C@@H](CCCCN)C(=O)N[C@@H](Cc1ccccc1)CN(CC(N)=O)C(=O)CCN`, the selectivity ratio in data set [1], in data set [4], in data set [6], in [13], in data set [17] and in data set [19] was not above 125 in each case. Moreover, the selectivity ratio in [20], in data set [24] and in data set [27] was not above 125 in each case. Besides, the MIC50 in data set [2] was 4 µg/mL (≈ 6.2 µM); in data set [3] it was 4 µg/mL (≈ 6.2 µM); in data set [5], 2 µg/mL (≈ 3.1 µM); in data set [9], 4 µg/mL (≈ 6.2 µM); in data set [10], 2 µg/mL (≈ 3.1 µM); in [15], 4 µg/mL (≈ 6.2 µM). The MIC50 in data set [21], in data set [22] and in [26] was 4 µg/mL (≈ 6.2 µM) each time. Moreover, the concentration for 50% haemolysis (HC50) at 1 h in [7] is more than 250 µg/mL.

The values are drawn from ChEMBL document CHEMBL5154933, “Development of Lipo-γ-AA Peptides as Potent Antifungal Agents” (J Med Chem, 2022).
